Where “and” joins values, the source holds several entries; their conditions need not be identical. Identical values can stand only once.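 In this assay, cells in 96-well plates receive the compound at five concentrations for 48 hours. Endpoints are linearly interpolated between the surrounding concentrations. At the GI50, growth is halved. TGI: total growth inhibition.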
Key:
Test in all cases: DTP human tumour cell line panel, 48 h
M14 melanoma = tested on: M14 melanoma
MDA-MB-231 breast = tested on: MDA-MB-231 breast
SF-268 CNS = tested on: SF-268 CNS
IGROV1 ovarian = tested on: IGROV1 ovarian
MDA-MB-435 = tested on: MDA-MB-435
OVCAR-3 ovarian = tested on: OVCAR-3 ovarian
HOP-62 NSCLC = tested on: HOP-62 NSCLC
K-562 leukemia = tested on: K-562 leukemia
SK-OV-3 ovarian = tested on: SK-OV-3 ovarian
HCC-2998 colon = tested on: HCC-2998 colon

Compound	TGI (M14 melanoma)	TGI (MDA-MB-231 breast)	TGI (SF-268 CNS)	TGI (IGROV1 ovarian)	TGI (MDA-MB-435)	TGI (OVCAR-3 ovarian)	TGI (HOP-62 NSCLC)	TGI (K-562 leukemia)	TGI (SK-OV-3 ovarian)	TGI (HCC-2998 colon)	GI50 (M14 melanoma)	GI50 (MDA-MB-231 breast)	GI50 (SF-268 CNS)	GI50 (IGROV1 ovarian)	GI50 (MDA-MB-435)	GI50 (OVCAR-3 ovarian)	GI50 (HOP-62 NSCLC)	GI50 (K-562 leukemia)	GI50 (SK-OV-3 ovarian)	GI50 (HCC-2998 colon)
O=C(O)/C(Cc1ccnc2ccccc12)=N\O	> 100 µM	> 100 µM	> 100 µM	> 100 µM	> 100 µM	> 100 µM	> 100 µM	> 100 µM	> 100 µM	–	–	–	–	–	–	–	–	–	–	–
C/C(CN1C(=O)c2ccccc2C1=O)=N\NS(=O)(=O)c1cccc(C(=O)O)c1	> 100 µM	–	> 100 µM	> 100 µM	–	> 100 µM	> 100 µM	> 100 µM	> 100 µM	> 100 µM	–	–	–	–	–	–	–	–	–	–
N#CC(C(=O)CCCC(=O)Nc1ccc(Cl)cc1Cl)c1ccccc1 (configuration not stated)	> 100 µM	–	> 100 µM	> 100 µM	–	> 100 µM	> 100 µM	> 100 µM	> 100 µM	> 100 µM	–	–	–	–	–	–	–	–	–	–
Cc1cccc(C(=O)O)c1C(=O)c1cccc2ccccc12	> 100 µM	–	> 100 µM	> 100 µM	–	> 100 µM	> 100 µM	> 100 µM	> 100 µM	> 100 µM	–	–	–	–	–	–	–	–	–	–
CC1=C(C(=O)Nc2ccccc2)C(c2ccccc2Cl)C(C(=O)Nc2ccccc2)=C(C)N1	33.3 µM	–	50.5 µM	65.4 µM	–	40.5 µM	38.5 µM	93.5 µM	80 µM	43.5 µM	–	–	–	–	–	–	–	–	–	–
COc1ccccc1S(=O)(=O)Nc1ccc2c3c(cc(CCC(=O)NCCCCNc4cccc5c4C(=O)N(C4CCC(=O)NC4=O)C5=O)cc13)C(=O)N2C (configuration not stated)	> 100 µM	0.295 µM	> 100 µM	> 100 µM	> 100 µM	> 100 µM	4.94 µM	> 100 µM	> 100 µM	–	1.11 µM	0.0351 µM	0.317 µM	0.14 µM	0.726 µM	2.21 µM	0.416 µM	0.443 µM	1.4 µM	–
COc1ccc(C(=O)c2cc(C)c(OC)c(C)c2)c(OC)c1NC(C)=O	> 100 µM	> 100 µM	> 100 µM	> 100 µM	–	–	> 100 µM	> 100 µM	> 100 µM	> 100 µM	0.15 µM	0.363 µM	1.82 µM	0.529 µM	–	0.483 µM	0.239 µM	0.937 µM	0.0674 µM	0.31 µM
COCCOc1cc(C)cc(/C=C(C)/C=C/C2=C(C)CCCC2(C)C)n1	> 100 µM	–	> 100 µM	> 100 µM	–	> 100 µM	> 100 µM	–	> 100 µM	–	–	–	–	–	–	–	–	–	–	–
CC(C)c1cc(C(C)C)c(S(=O)(=O)N=[N+]=[N-])c(C(C)C)c1	> 100 µM	–	> 100 µM	> 100 µM	–	> 100 µM	> 100 µM	> 100 µM	> 100 µM	> 100 µM	–	–	–	–	–	–	–	–	–	–
O=C(O)CCNS(=O)(=O)c1ccc2ccccc2c1	> 100 µM	–	> 100 µM	> 100 µM	–	> 100 µM	–	> 100 µM	> 100 µM	> 100 µM	–	–	–	–	–	–	–	–	–	–
O=C(C(=O)n1ncc(Cl)c(Cl)c1=O)n1ncc(Cl)c(Cl)c1=O	> 68.7 µM	–	> 100 µM	> 77.3 µM	–	68.2 µM	> 100 µM	> 100 µM	> 100 µM	46.9 µM	–	–	–	–	–	–	–	–	–	–
CCC[CH2][Sn]([CH2]CCC)([S]C#N)[S]C#N	3.48 µM	–	2.26 µM	2.78 µM	–	2.7 µM	3.58 µM	1.35 µM	3.39 µM	2.39 µM	1.49 µM	–	0.802 µM	1.27 µM	–	1.4 µM	1.98 µM	0.215 µM	1.77 µM	1.15 µM
Cc1cc(-c2c(F)cc3c4nn([C@H]5CC[C@@H](N(C)C)CC5)c(=O)c-4cn(C4CC4)c3c2F)cc(C)n1	–	–	0.151 µM and 0.89 µM	–	–	2.66 µM	0.0784 µM and 0.455 µM	–	0.141 µM and 0.708 µM	0.108 µM and 1.01 µM	0.0539 µM	–	0.0285 µM	0.278 µM	–	–	0.018 µM	0.164 µM	0.0546 µM	0.0369 µM
COc1ccc2nc(C(=O)c3ccccc3)c(C)cc2c1	13.4 µM	–	56.3 µM	> 73.1 µM	–	> 24.3 µM	37.1 µM	> 100 µM	15.8 µM	26.3 µM	–	–	–	–	–	–	–	–	–	–
O=C(O)/C(Cc1cn[nH]n1)=N\O	> 100 µM	> 100 µM	> 100 µM	> 100 µM	> 100 µM	> 100 µM	> 100 µM	> 100 µM	> 100 µM	–	–	–	–	–	–	–	–	–	–	–
Cc1c(C(=O)O)n(C)c(=O)n(C)c1=O	> 100 µM	–	> 100 µM	> 100 µM	–	> 100 µM	> 100 µM	> 100 µM	> 100 µM	> 100 µM	–	–	–	–	–	–	–	–	–	–
C#C[C@@]1(O)[C@@H](CO)O[C@@H](n2cc(I)c3c(N)ncnc32)[C@@H]1O	9.51 µM	> 100 µM	49.9 µM	–	12.8 µM	–	8.69 µM	> 100 µM	0.729 µM	3.01 µM	0.49 µM	0.185 µM	1.1 µM	–	0.473 µM	–	0.747 µM	0.064 µM	0.0343 µM	0.243 µM
O=C(CN(/C=C/C(=O)C(F)(F)F)c1ccc(Cl)cc1)c1ccc(Cl)c(Cl)c1	19.3 µM	20.9 µM	16.4 µM	22.1 µM	13.5 µM	11.3 µM	23.8 µM	–	35.2 µM	26.2 µM	6.51 µM	7.05 µM	4.13 µM	6.8 µM	4.03 µM	3.23 µM	11.5 µM	–	17.1 µM	12.6 µM
COc1ccc(C2=Nc3ccccc3SC(C)C2)cc1OC (configuration not stated)	33 µM	–	43.5 µM	29.7 µM	–	30.8 µM	–	56.6 µM	39.5 µM	32.6 µM	–	–	–	–	–	–	–	–	–	–
Cc1ccc(NC(=O)C(=O)CC(=O)c2c(C)n([O-])c3ccccc3[n+]2=O)cc1C	> 100 µM	–	> 100 µM	> 100 µM	–	> 100 µM	> 100 µM	> 100 µM	> 100 µM	> 100 µM	–	–	–	–	–	–	–	–	–	–

— PubChem BioAssay (NCI)
